pEC50, pIC50: −log10 of the molar value. Activity calls are given as the source filed them. The calls are words filed in the database; no cut-off is given here.
How the values were obtained:
[1] = molecular target: DNA topoisomerase 2-alpha (Homo sapiens, UniProt P11388); experiment: Inhibition of human DNA topoisomerase 2alpha-mediated decatenation of kinetoplast DNA after 60 mins by agarose gel electrophoresis
[2] = Inhibition of Escherichia coli DNA topoisomerase 4 decatenation activity using kinetoplast DNA as substrate after 60 mins by agarose gel electrophoresis
[3] = Binding affinity to 5'-dabcyl/3'-fluorescein labeled duplex DNA (unknown origin) assessed as change in melting temperature at 10 uM by fluorescence assay
Homo sapiens = species on record: Homo sapiens; experiment: Binding affinity to 5'-dabcyl/3'-fluorescein labeled human telomeric sequence G-quadruplex DNA assessed as change in melting temperature at 10 uM by fluorescence assay
[4] = Binding affinity to 5'-dabcyl/3'-fluorescein labeled cKit G-quadruplex DNA (unknown origin) assessed as change in melting temperature at 10 uM by fluorescence assay
[5] = Binding affinity to 5'-dabcyl/3'-fluorescein labeled pu27 G-quadruplex DNA (unknown origin) assessed as change in melting temperature at 10 uM by fluorescence assay
[6] = Cytotoxicity against human HeLa cells after 72 hrs by MTT assay; type: functional, cell-based
[7] = Cytotoxicity against human MCF7 cells after 72 hrs by MTT assay; type: functional, cell-based; conditions: MCF7, 72 h
[8] = Inhibition of thiazole orange binding to human telomeric sequence G-quadruplex DNA by fluorescence assay
[9] = Inhibition of thiazole orange binding to pu27 G-quadruplex DNA (unknown origin) by fluorescence assay
[10] = Inhibition of thiazole orange binding to cKit G-quadruplex DNA (unknown origin) by fluorescence assay
[11] = Inhibition of thiazole orange binding to duplex DNA (unknown origin) by fluorescence assay
Escherichia coli = experiment: Induction of Escherichia coli pBR322 DNA unwinding at 0.1 to 10 uM after 1 hr by agarose gel electrophoresis

Sequence of DNA topoisomerase 2-alpha (P11388 whole entry): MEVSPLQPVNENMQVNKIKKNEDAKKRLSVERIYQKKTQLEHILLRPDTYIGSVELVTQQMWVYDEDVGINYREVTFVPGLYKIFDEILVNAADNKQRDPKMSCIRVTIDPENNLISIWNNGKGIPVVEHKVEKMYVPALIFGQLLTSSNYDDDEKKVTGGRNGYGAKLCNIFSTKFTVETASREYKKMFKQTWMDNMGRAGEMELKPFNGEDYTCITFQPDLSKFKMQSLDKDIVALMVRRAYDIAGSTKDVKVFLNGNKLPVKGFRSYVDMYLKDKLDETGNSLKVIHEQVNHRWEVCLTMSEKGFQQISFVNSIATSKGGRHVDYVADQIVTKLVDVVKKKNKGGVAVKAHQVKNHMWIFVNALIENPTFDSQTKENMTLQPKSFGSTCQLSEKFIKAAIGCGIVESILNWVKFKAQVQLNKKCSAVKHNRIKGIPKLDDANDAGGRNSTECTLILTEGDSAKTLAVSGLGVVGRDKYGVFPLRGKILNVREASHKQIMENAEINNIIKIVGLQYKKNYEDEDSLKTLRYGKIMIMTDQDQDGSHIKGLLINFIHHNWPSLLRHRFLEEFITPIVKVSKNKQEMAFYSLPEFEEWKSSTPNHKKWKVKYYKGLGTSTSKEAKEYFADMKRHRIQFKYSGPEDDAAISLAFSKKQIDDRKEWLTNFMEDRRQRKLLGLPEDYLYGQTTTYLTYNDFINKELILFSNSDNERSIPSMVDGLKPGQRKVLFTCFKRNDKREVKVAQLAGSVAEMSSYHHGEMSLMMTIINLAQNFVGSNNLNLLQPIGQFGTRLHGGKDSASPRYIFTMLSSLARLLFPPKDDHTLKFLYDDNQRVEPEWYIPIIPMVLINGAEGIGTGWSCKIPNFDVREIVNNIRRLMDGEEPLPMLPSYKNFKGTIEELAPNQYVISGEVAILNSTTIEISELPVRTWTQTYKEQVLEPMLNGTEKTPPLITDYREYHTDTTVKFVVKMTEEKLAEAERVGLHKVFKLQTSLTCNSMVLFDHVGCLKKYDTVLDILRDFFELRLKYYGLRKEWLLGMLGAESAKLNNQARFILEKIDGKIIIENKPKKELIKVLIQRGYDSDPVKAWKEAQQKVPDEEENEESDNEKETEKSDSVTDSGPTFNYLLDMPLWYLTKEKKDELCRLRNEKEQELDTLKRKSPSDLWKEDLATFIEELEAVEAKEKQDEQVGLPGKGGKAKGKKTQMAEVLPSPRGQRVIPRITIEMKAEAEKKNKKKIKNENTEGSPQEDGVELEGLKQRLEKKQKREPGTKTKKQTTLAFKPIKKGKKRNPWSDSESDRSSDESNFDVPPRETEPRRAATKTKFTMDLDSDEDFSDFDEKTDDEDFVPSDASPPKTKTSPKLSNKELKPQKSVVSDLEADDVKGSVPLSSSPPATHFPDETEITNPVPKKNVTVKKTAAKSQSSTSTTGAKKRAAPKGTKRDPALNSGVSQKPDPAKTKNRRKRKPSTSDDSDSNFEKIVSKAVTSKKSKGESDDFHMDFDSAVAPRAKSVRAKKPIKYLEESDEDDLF

| pIC50 [1] | pIC50 [2] | ΔTm [3] [°C] | ΔTm (Homo sapiens) [°C] | ΔTm [4] [°C] | ΔTm [5] [°C] | pEC50 [8] | pEC50 [9] | pEC50 [10] | pEC50 [11] | Activity (Escherichia coli) | Structure (SMILES) | pIC50 [6] | pIC50 [7] |
| --- | --- | --- | --- | --- | --- | --- | --- | --- | --- | --- | --- | --- | --- |
| 4.95 | < 4.00 | 2.2 | 6.1 | 6.9 | 5.9 |  |  |  |  |  | CN(C)CCCNc1nc2ccccc2c2nc3ccccc3nc12 | 5.27 | 5.53 |
| 4.71 |  | 1.8 | 0.4 | 2 | 1.4 |  |  |  |  |  | c1ccc2nc3c(nc2c1)c(NCCN1CCCCC1)nc1ccccc13 | 4.99 |  |
| < 4.00 | < 4.00 | 0 | 0.8 | 0 | 0 |  |  |  |  |  | O=c1c2nc3ccccc3nc2c2ccccc2n1CCN1CCOCC1 | < 4.00 | < 4.00 |
| 4.00 | < 4.00 | 0 | 0 | 0 | 0 |  |  |  |  |  | c1ccc2nc3c(nc2c1)c(NCCN1CCOCC1)nc1ccccc13 | < 4.00 | < 4.00 |
| < 4.00 | < 4.00 | 0 | 3.1 | 1.5 | 5.9 |  |  |  |  |  | CN(CCCCCNc1nc2ccccc2c2nc3ccccc3nc12)Cc1ccccc1 | < 4.00 | < 4.00 |
| 4.62 |  | 0.5 | 1.4 | 3.8 | 4.1 |  |  |  |  |  | CN(C)CCCOc1nc2ccccc2c2nc3ccccc3nc12 | 5.21 |  |
| < 4.00 | < 4.00 | 0 | 0 | 0 | 0 |  |  |  |  |  | O=c1[nH]c2ccccc2c2nc3ccccc3nc12 | 4.70 | 4.48 |
| 4.06 |  | 0.4 | 2.3 | 4.5 | 3.5 |  |  |  |  |  | CCN(CC)CCn1c(=O)c2nc3ccccc3nc2c2ccccc21 | 5.07 |  |
| 5.29 | < 4.00 | 4.2 | 9.8 | 11.6 | 9.4 | 5.35 | 6.24 | 6.08 | 5.90 |  | CN(C)CCCCNc1nc2ccccc2c2nc3ccccc3nc12 | 5.63 | 5.80 |
| < 4.00 |  | 1.1 | 1.1 | 5.8 | 3.8 |  |  |  |  |  | CCN(CC)CCNc1nc2ccccc2c2nc3ccccc3nc12 | 5.16 |  |
| < 4.00 |  | 0.1 | 1 | 2.5 | 0.8 |  |  |  |  |  | CCN(CC)CCOc1nc2ccccc2c2nc3ccccc3nc12 | 4.60 |  |
| 4.46 |  | 0.9 | 4.8 | 7.4 | 6.4 |  |  |  |  |  | CN(C)CCCCn1c(=O)c2nc3ccccc3nc2c2ccccc21 | 4.95 |  |
| 4.45 |  | 0.3 | 2.7 | 4.8 | 4.1 |  |  |  |  |  | CN(C)CCn1c(=O)c2nc3ccccc3nc2c2ccccc21 | 5.14 |  |
|  |  |  |  |  |  |  |  |  |  |  | O=C1c2ccccc2C(=O)c2c(NCCNCCO)ccc(NCCNCCO)c21 [AMETANTRONE] | 6.05 | 6.29 |
|  | 4.20 |  |  |  |  |  |  |  |  |  | CO[C@@H]1[C@@H](OC(N)=O)[C@@H](O)[C@H](Oc2ccc3c(O)c(NC(=O)c4ccc(O)c(CC=C(C)C)c4)c(=O)oc3c2C)OC1(C)C [NOVOBIOCIN] |  |  |
| 4.86 |  | 1.5 | 2 | 4.7 | 5.9 |  |  |  |  |  | CCN(CC)CCCNc1nc2ccccc2c2nc3ccccc3nc12 | 5.19 |  |
| < 4.00 |  | 0.2 | 1.2 | 2.7 | 0.6 |  |  |  |  |  | Cc1cc2c(=O)n(CCN(C)C)c3ccccc3c2nn1 | 4.39 |  |
| < 4.00 | < 4.00 | 0.4 | 4.7 | 7.8 | 5.5 |  | 5.88 | 5.45 | 4.96 |  | CN(C)CCCn1c(=O)c2nc3ccccc3nc2c2ccccc21 | 5.69 | 5.22 |
| 5.52 |  |  |  |  |  |  |  |  |  | Active | COc1cccc2c1C(=O)c1c(O)c3c(c(O)c1C2=O)C[C@@](O)(C(=O)CO)C[C@@H]3O[C@H]1C[C@H](N)[C@H](O)[C@H](C)O1 [DOXORUBICIN] |  |  |
| 4.75 | < 4.00 | 4.2 | 10.6 | 11.2 | 8.8 |  |  |  |  |  | CN(C)CCSc1nc2ccccc2c2nc3ccccc3nc12 | 5.22 | 5.62 |
| 4.71 | < 4.00 | 4.3 | 8.2 | 9.7 | 4 |  |  |  |  |  | CN(C)CCNc1nc2ccccc2c2nc3ccccc3nc12 | 5.53 | 5.63 |
| < 4.00 |  | 0.1 | 1.7 | 1.8 | 2.1 |  |  |  |  |  | Cc1cc2c(=O)n(CCCN(C)C)c3ccccc3c2nn1 | 4.31 |  |

— ChEMBL document CHEMBL3875142, “Quinolino[3,4-b]quinoxalines and pyridazino[4,3-c]quinoline derivatives: Synthesis, inhibition of topoisomerase IIα, G-quadruplex binding and cytotoxic properties” (Eur J Med Chem, 2016)
